Columns and labels:
Assay type in all cases: in vivo
[1] = system: Blumeria graminis on wheat; assay: Greenhouse trial, 4 day curative, Blumeria graminis on wheat; conditions: compound alone
Method: The trials are carried out under greenhouse (Examples 1 to 18) or field conditions (Example 19) in residual or curative applications. The fungicides are applied in single treatments, or in a combination comprising a benzophenone of formula I and a compound selected from (A) through (E) as defined above. The compounds are applied in form of an aqueous spray mix obtained from a concentrated formulation or the technical material. […] Seed is planted in 6 cm diameter plastic pots and maintained in the greenhouse. […] When the primary leaf is fully expanded (in the case of cereals) or several leaves are present (in the case of dicots), formulated test compounds are sprayed with a three nozzle overhead fungicide sprayer to near run-off. Alternatively, a single nozzle overhead track sprayer is used for application of the compounds to cereals at a rate of 200 liters/ha (l/ha). Plants are then allowed to air-dry. […] Inoculation precedes treatment in the case of curative evaluations and follows treatment in case of residual evaluations. For inoculation of powdery mildew disease, plants are set up on greenhouse benches with bottom watering mats and inoculated by dusting them with conidia from infected plants. Between inoculation and treatment for curative evaluations and between treatment and inoculation for residual evaluations, plants are maintained in the greenhouse with bottom watering. For inoculation of non-powdery mildew diseases, an aqueous spore suspension of the pathogen is applied to the plant and the plants are kept 1-2 days in a moist infection chamber before being returned to the greenhouse where they are maintained by bottom watering. […] Disease on the foliage as percent leaf area with disease symptoms/signs is evaluated about 7 days after inoculation. In the case of wheat, the tips and bases of the leaves are excluded from the evaluation. [formula] […] Compounds are dissolved in acetone prior to addition of the water; the Tween 20 can be added through either the acetone or the water. Dilutions are made using the solvent/surfactant system. Formulated compounds are prepared using deionized water. Assessments of the diseases took place at the indicated day after the application of the compounds. Per cent infected leaf area infected was evaluated. […] Synergy of a fungicide mixture was determined by comparing the actual (observed) fungicidal activity of the mixture to the expected fungicidal activity of the mixture as calculated using the COLBY formula given hereinabove.

[2] = system: Blumeria graminis on wheat; assay: Greenhouse trial, 3 day protective, Blumeria graminis on wheat; conditions: Table V, compound alone
Description: (§1) The fungicides are applied in single treatments, or in a combination comprising a benzophenone of formula I and a compound selected from (A) through (E) as defined above. The compounds are applied in form of an aqueous spray mix obtained from a concentrated formulation or the technical material.
(§2) 1. Seed is planted in 6 cm diameter plastic pots and maintained in the greenhouse.
(§3) 2. When the primary leaf is fully expanded (in the case of cereals) or several leaves are present (in the case of dicots), formulated test compounds are sprayed with a three nozzle overhead fungicide sprayer to near run-off. Alternatively, a single nozzle overhead track sprayer is used for application of the compounds to cereals at a rate of 200 liters/ha (l/ha). Plants are then allowed to air-dry.
(§4) 3. Inoculation precedes treatment in the case of curative evaluations and follows treatment in case of residual evaluations. For inoculation of powdery mildew disease, plants are set up on greenhouse benches with bottom watering mats and inoculated by dusting them with conidia from infected plants. Between inoculation and treatment for curative evaluations and between treatment and inoculation for residual evaluations, plants are maintained in the greenhouse with bottom watering. For inoculation of non-powdery mildew diseases, an aqueous spore suspension of the pathogen is applied to the plant and the plants are kept 1-2 days in a moist infection chamber before being returned to the greenhouse where they are maintained by bottom watering.
(§5) 4. Disease on the foliage as percent leaf area with disease symptoms/signs is evaluated about 7 days after inoculation. In the case of wheat, the tips and bases of the leaves are excluded from the evaluation. [formula]
(§6) 1. Technical compounds are formulated in a solvent/surfactant system consisting of 5% acetone and 0.05% Tween 20 in deionized water. Compounds are dissolved in acetone prior to addition of the water; the Tween 20 can be added through either the acetone or the water. Dilutions are made using the solvent/surfactant system. Formulated compounds are prepared using deionized water.
(§7) Assessments of the diseases took place at the indicated day after the application of the compounds. Per cent infected leaf area infected was evaluated. The efficacy of the compounds/compounds mixtures to control the diseases was calculated by using the formula given above under item 4: […]
(§8) Synergy of a fungicide mixture was determined by comparing the actual (observed) fungicidal activity of the mixture to the expected fungicidal activity of the mixture as calculated using the COLBY formula given hereinabove.
Fungicidal Efficacy of the Mixture of BP-5+Triforine (3 Day Protective) Against Blumeria graminis on Wheat
Fungicidal Efficacy of the Mixture of BP-1+Triadimefon (3 Day Protective) Against Blumeria graminis on Wheat

Cercospora beticola = assay: Field trial against the sugar beet disease Cercospora beticola; conditions: Table XIX, compound alone
Method: The trials are carried out under greenhouse (Examples 1 to 18) or field conditions (Example 19) in residual or curative applications. The fungicides are applied in single treatments, or in a combination comprising a benzophenone of formula I and a compound selected from (A) through (E) as defined above. The compounds are applied in form of an aqueous spray mix obtained from a concentrated formulation or the technical material. For the field study formulated benzophenones BP-1 through BP-4 and formulated compounds from (A) through (E) were used. The compounds are applied according to good agricultural practice in form of an aqueous spray mix obtained from concentrated formulation or the technical material at a rate of 400 l/ha. The disease control is evaluated according to the formula given for the greenhouse tests. Fungicidal Efficacy of the Mixture of BP-1+Metconazole in the Field Against the Sugar Beet Disease Cercospora beticola The tank mix was obtained from a SC formulation containing 100 g of BP-1 per liter and a SL formulation containing 60 g of metconazole per liter.

[3] = system: Erysiphe cichoracearum on cucumbers; assay: Greenhouse trial, 4 day residual, Erysiphe cichoracearum on cucumbers; conditions: Golovinomyces cichoracearum, 96 h, Table XI, compound alone, read-out: Observed Efficacy
In short: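 Cucumber plants were sprayed to near run-off with compounds or mixtures (5% acetone/0.05% Tween 20 aqueous). Four days later they were inoculated by dusting with Erysiphe cichoracearum conidia. Percent diseased leaf area was assessed about 7 days after inoculation, and efficacy and Colby synergy were calculated from it.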

[4] = system: Pyrenophora teres on barley; assay: Greenhouse trial, 4 day residual, Pyrenophora teres on barley; conditions: Pyrenophora teres, 96 h, Table XIII (Example 13), 4 day residual, read-out: Observed Efficacy
Description: as §1, §2, §3, §4, §5, §6, §7, §8
Fungicidal Efficacy of the Mixture of BP-4+Other Fungicides (4 Day Residual) Against Pyrenophora teres on Barley

[5] = system: Blumeria graminis f. sp. tritici on wheat; assay: Greenhouse trial, 2 day curative, Blumeria graminis f. sp. tritici on wheat; conditions: Table XVII, compound alone
Method: as §1, with “The trials are carried out under greenhouse (Examples 1 to 18) or field conditions (Example 19) in residual or curative applications. The fungicides” for “The fungicides”
as §2, §3, §4, §5, §6, §7, §8
Fungicidal Efficacy of the Mixture of Different Benzophenones+Metconazole (2 Day Curative) Against Blumeria graminis f. sp. tritici on Wheat
The tank mixes were obtained from technical material of the benzophenones BP-2 and BP-4 and metconazole.

SMILES | Observed Efficacy ([1]; Table I, dose rate 25 ppm) [%] | Observed Efficacy ([1]; Table I, dose rate 125 ppm) [%] | Observed Efficacy ([1]; Table II, dose rate 25 ppm) [%] | Observed Efficacy ([1]; Table II, dose rate 125 ppm) [%] | Observed Efficacy ([1]; Table III, dose rate 25 ppm) [%] | Observed Efficacy ([1]; Table III, dose rate 125 ppm) [%] | Observed Efficacy ([2]; dose rate 1 ppm) [%] | Observed Efficacy ([2]; dose rate 5 ppm) [%] | Observed Efficacy (Cercospora beticola; dose rate 250 g/ha) [%] | pest or weed control at 0.4 ppm ([3]; dose rate 0.4 ppm) [%] | pest or weed control at 10 ppm ([3]; dose rate 10 ppm) [%] | pest or weed control at 50 ppm ([3]; dose rate 50 ppm) [%] | pest or weed control at 0.4 ppm ([4]; dose rate 0.4 ppm) [%] | pest or weed control at 10 ppm ([4]; dose rate 10 ppm) [%] | Observed Efficacy ([5]; dose rate 0.33 ppm) [%] | Observed Efficacy ([5]; dose rate 1 ppm) [%] | Observed Efficacy ([5]; dose rate 3 ppm) [%] | Observed Efficacy ([5]; dose rate 9 ppm) [%] | Observed Efficacy ([5]; dose rate 27 ppm) [%] | Observed Efficacy (Cercospora beticola; dose rate 90 g/ha) [%]
CCCCOc1c(OC)c(OC)cc(C)c1C(=O)c1c(Cl)cccc1Cl [BP-1, 6′-butoxy-2,6-dichloro-4′,5′-dimethoxy-2′-methylbenzophenone] | 1 | 42 | 1 | 42 | 1 | 42 | 44 | 78 | 42.5 | – | – | – | – | – | – | – | – | – | – | –
CC1(C)CCC(Cc2ccc(Cl)cc2)C1(O)Cn1cncn1 (centres unmarked) [Metconazole] | – | – | – | – | – | – | – | – | – | 2 | 75 | 99 | 0 | 47 | 0 | 2 | 7 | 14 | 40 | 58

Source: patent US6346535B1, “Fungicidal mixtures” (American Cyanamid Company, priority 1999, dated 2002)
